Assay in all cases: In vitro competitive activity-based protein profiling (gel-based, FP-Rh or HT-01 probe)
Type in all cases: biochemical

One assay addresses T1, FAAH (Mus musculus, UniProt O08914).
T1 construct: Proteomes (mouse brain membrane fraction or cell lysates); from tissue; host or cells: mouse brain membrane fraction (or cell lysates, not specified)
T1 sequence (O08914 1-579): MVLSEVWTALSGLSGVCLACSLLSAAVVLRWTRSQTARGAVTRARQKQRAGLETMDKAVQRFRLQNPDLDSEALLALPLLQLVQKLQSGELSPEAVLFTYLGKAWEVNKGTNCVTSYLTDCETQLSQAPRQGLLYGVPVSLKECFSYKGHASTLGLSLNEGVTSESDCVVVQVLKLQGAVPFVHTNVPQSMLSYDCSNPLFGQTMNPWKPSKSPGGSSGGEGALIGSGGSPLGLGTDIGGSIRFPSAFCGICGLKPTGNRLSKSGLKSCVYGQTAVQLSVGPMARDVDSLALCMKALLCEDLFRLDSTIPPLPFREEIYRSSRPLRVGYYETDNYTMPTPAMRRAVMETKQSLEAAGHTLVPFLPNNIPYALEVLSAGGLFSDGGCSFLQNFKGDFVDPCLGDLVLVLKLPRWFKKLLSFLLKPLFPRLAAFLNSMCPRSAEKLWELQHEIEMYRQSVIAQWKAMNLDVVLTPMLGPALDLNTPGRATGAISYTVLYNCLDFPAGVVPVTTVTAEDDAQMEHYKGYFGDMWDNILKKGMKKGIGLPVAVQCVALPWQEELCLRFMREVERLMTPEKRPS
The conditions noted are these: for inhibition at 1 µM: 1 μM inhibitor, read-out: % Inhibition at 1 μM, B = FAAH; for inhibition at 10 µM: 10 μM inhibitor, read-out: % Inhibition at 10 μM, B = FAAH; for IC50: mouse brain membrane fraction or cell lysates, 30 min preincubation at 37° C., read-out: Mouse (IC50 value, nM) FAAH. An outline of the steps: (§1)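 Gel-based read-out: fluorescent band intensity after SDS-PAGE reflected remaining hydrolase activity. Inhibitors were preincubated 30 min at 37° C with 1.0 mg/mL mouse brain membrane or lysate proteome before a further 30 min at 37° C with FP-Rh or HT-01 probe.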

The next assay has as its target T2, MAGL (Mus musculus, UniProt O35678).
T2 construct: Proteomes (mouse brain membrane fraction or cell lysates); from tissue; host or cells: mouse brain membrane fraction (or cell lysates, not specified)
T2 sequence (O35678 1-303): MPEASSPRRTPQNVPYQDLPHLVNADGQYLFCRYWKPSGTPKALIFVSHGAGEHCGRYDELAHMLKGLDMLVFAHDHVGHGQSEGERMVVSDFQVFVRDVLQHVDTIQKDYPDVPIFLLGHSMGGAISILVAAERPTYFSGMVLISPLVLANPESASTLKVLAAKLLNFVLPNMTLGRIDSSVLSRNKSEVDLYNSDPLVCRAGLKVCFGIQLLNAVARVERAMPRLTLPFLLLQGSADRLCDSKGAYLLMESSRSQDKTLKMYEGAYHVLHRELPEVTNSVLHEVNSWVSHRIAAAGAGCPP
The note with it: for inhibition at 1 µM: 1 μM inhibitor; for inhibition at 10 µM: 10 μM inhibitor; for IC50: mouse brain membrane fraction or cell lysates, 30 min preincubation at 37° C., read-out: Mouse (IC50 value, nM) MAGL. An outline of the steps:
as §1

For a further assay, the target named is T3, ABHD6 (Mus musculus, UniProt Q8R2Y0).
T3 construct: Proteomes (mouse brain membrane fraction or cell lysates); from tissue; host or cells: mouse brain membrane fraction (or cell lysates, not specified)
T3 sequence (Q8R2Y0 1-336): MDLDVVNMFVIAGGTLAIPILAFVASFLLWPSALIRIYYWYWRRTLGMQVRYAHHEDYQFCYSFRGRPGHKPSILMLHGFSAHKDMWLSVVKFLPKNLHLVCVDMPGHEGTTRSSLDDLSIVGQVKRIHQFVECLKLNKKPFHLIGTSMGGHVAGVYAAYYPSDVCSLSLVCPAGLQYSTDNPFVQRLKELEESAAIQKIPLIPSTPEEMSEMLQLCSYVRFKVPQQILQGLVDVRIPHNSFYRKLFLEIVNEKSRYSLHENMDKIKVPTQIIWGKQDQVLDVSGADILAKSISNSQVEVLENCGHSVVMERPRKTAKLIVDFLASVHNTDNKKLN
The note with it: for inhibition at 1 µM: 1 μM inhibitor, read-out: % Inhibition at 1 μM, C = ABHD6; for inhibition at 10 µM: 10 μM inhibitor, read-out: % Inhibition at 10 μM, C = ABHD6; for IC50: mouse brain membrane fraction or cell lysates, 30 min preincubation at 37° C., read-out: Mouse (IC50 value, nM) ABHD6. An outline of the steps: as §1

For the next assay, the target named is T4, PLA2G7 (Mus musculus, UniProt Q60963).
T4 construct: Proteomes (mouse brain membrane fraction or cell lysates); from tissue; host or cells: mouse brain membrane fraction (or cell lysates, not specified)
T4 sequence (Q60963 22-440): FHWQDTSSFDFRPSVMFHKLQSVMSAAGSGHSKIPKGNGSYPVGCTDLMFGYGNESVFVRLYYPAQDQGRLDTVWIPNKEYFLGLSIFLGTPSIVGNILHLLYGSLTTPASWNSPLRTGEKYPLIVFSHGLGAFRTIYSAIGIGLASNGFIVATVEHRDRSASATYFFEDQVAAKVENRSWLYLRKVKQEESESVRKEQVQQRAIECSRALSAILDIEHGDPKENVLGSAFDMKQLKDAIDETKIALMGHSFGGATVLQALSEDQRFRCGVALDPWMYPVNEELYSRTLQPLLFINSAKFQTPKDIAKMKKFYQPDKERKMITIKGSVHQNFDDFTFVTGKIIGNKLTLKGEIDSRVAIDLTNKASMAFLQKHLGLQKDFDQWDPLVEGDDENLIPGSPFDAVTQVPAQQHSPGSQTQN
The note with it: for inhibition at 1 µM: 1 μM inhibitor, read-out: % Inhibition at 1 μM, D = PLA2G7; for inhibition at 10 µM: 10 μM inhibitor, read-out: % Inhibition at 10 μM, D = PLA2G7; for IC50: mouse brain membrane fraction or cell lysates, 30 min preincubation at 37° C. An outline of the steps:
as §1

Read-outs that look alike come from different tables or passages of the source.

As a reminder, the inhibition is the percentage by which the read-out fell short of the control. For `N#Cc1cnn(C(=O)N2CCN(C(=O)c3ccccc3)CC2)c1` [Example 176, 1-(4-Benzoylpiperazine-1-carbonyl)-1H-pyrazole-4-carbonitrile], the inhibition at 1 µM on FAAH was < 25%; on MAGL, > 75%; at ABHD6 it was < 25%; on PLA2G7 it was > 75%. The inhibition at 10 µM on FAAH is 25 to 75%; at MAGL, > 75%; at ABHD6, > 75%; at PLA2G7, > 75%.

As to `O=C(N1CCN(Cc2ccc3ccccc3c2)CC1)n1cc(Br)cn1` [Example 13, (4-Bromo-1H-pyrazol-1-yl)(4-(naphthalen-2-ylmethyl)piperazin-1-yl)methanone], the inhibition at 1 µM on FAAH, on MAGL, on ABHD6 and on PLA2G7 was > 75% each time. In addition, the inhibition at 10 µM on FAAH, on MAGL, at ABHD6 and at PLA2G7 was > 75% throughout.

Regarding `Cc1cnn(C(=O)N2CCCN(Cc3cccc(Oc4ccccc4)c3)CC2)c1` [Example 298, (4-Methyl-1H-pyrazol-1-yl)(4-(3-phenoxybenzyl)-1,4-diazepan-1-yl)methanone], the inhibition at 1 µM at FAAH (gel-based competitive ABPP) is < 25%; at MAGL (gel-based competitive ABPP), > 75%; on ABHD6 (gel-based competitive ABPP), < 25%; at PLA2G7 (gel-based competitive ABPP), < 25%.

Consider `Cc1cnn(C(=O)N2CCCCC2)c1` [Example 2, (4-Methyl-1H-pyrazol-1-yl)(piperidin-1-yl)methanone], for which the inhibition at 1 µM on FAAH was < 25%; at MAGL it was < 25%; at ABHD6 it was 25 to 75%; at PLA2G7, < 25%. The inhibition at 10 µM at FAAH is > 75%; at MAGL, 25 to 75%; on ABHD6, > 75%; at PLA2G7, > 75%.

By IC50 is commonly meant the midpoint of a concentration-inhibition curve. In the case of `N#Cc1cnn(C(=O)N2CCCCCC2)c1` [Example 292, 1-(Azepane-1-carbonyl)-1H-pyrazole-4-carbonitrile], the inhibition at 1 µM at FAAH (gel-based competitive ABPP) was > 75%; at MAGL (gel-based competitive ABPP) it was 25 to 75%; at ABHD6 (gel-based competitive ABPP), 25 to 75%; on PLA2G7 (gel-based competitive ABPP), < 25%. Further, the inhibition at 10 µM on FAAH (gel-based competitive ABPP), on MAGL (gel-based competitive ABPP), at ABHD6 (gel-based competitive ABPP) and at PLA2G7 (gel-based competitive ABPP) was > 75% each time. Further, the IC50 on FAAH is 100 to 1000 nM; at MAGL it was > 1000 nM; on ABHD6, > 1000 nM; on PLA2G7 it was > 1000 nM.

On to `Cc1cnn(C(=O)N2CCCN(C(=O)OC(C)(C)C)CC2)c1` [Example 26, tert-Butyl 4-(4-methyl-1H-pyrazole-1-carbonyl)-1,4-diazepane-1-carboxylate], for which the inhibition at 1 µM was 25 to 75% on FAAH, < 25% on MAGL, 25 to 75% at ABHD6 and < 25% at PLA2G7. For the same compound, the inhibition at 10 µM on FAAH was > 75%; at MAGL, 25 to 75%; at ABHD6, > 75%; on PLA2G7, < 25%.

As to `N#Cc1cnn(C(=O)NCCCCCc2ccccc2)c1` [Example 39, 4-Cyano-N-(5-phenylpentyl)-1H-pyrazole-1-carboxamide], the inhibition at 1 µM at FAAH, at MAGL, on ABHD6 and at PLA2G7 was < 25% in each case. The inhibition at 10 µM is > 75% at FAAH, 25 to 75% on MAGL, < 25% on ABHD6 and < 25% on PLA2G7.

Consider `CCN(Cc1ccc(Cl)cc1)C(=O)n1cc(Cl)cn1` [Example 131, 4-chloro-N-(4-chlorobenzyl)-N-ethyl-1H-pyrazole-1-carboxamide], for which the inhibition at 1 µM on FAAH is > 75%; on MAGL it was < 25%; at ABHD6, < 25%; on PLA2G7 it was < 25%. For the same compound, the IC50 at FAAH is < 100 nM; on MAGL, > 1000 nM; on ABHD6 it was > 1000 nM.

As for `COc1ccc(N2CCN(C(=O)n3cc(C(F)(F)F)cn3)CC2)cc1` [Example 235, (4-(4-Methoxyphenyl)piperazin-1-yl)(4-(trifluoromethyl)-1H-pyrazol-1-yl)methanone], the inhibition at 1 µM on FAAH, at MAGL, at ABHD6 and on PLA2G7 was > 75% in each case. The inhibition at 10 µM on FAAH, at MAGL, on ABHD6 and on PLA2G7 was > 75% each time. Besides, the IC50 at FAAH, on MAGL, at ABHD6 and at PLA2G7 was < 100 nM throughout.

In the case of `Cc1cc(-c2ccccc2)ccc1CN1CCN(C(=O)n2cc(C(=O)N3CCCCC3)cn2)CC1` [Example 76, (4-((3-Methyl-[1,1′-biphenyl]-4-yl)methyl)piperazin-1-yl)(4-(piperidine-1-carbonyl)-1H-pyrazol-1-yl)methanone], the inhibition at 1 µM at FAAH, on MAGL, at ABHD6 and on PLA2G7 was > 75% in each case. Besides, the inhibition at 10 µM at FAAH, at MAGL, on ABHD6 and on PLA2G7 was > 75% each time. Further, the results for the half-maximal inhibitory concentration (IC50) at FAAH, at MAGL and at ABHD6 were < 100 nM, 100 to 1000 nM and 100 to 1000 nM, respectively.

Regarding `O=C(N1CCN(Cc2ccc(N3CCOCC3)cc2)CC1)n1cc(Cl)cn1` [Example 217, (4-Chloro-1H-pyrazol-1-yl)(4-(4-morpholinobenzyl)piperazin-1-yl)methanone], the inhibition at 1 µM at FAAH, on MAGL, on ABHD6 and on PLA2G7 was > 75% throughout.

These data come from US10093630B2, “Pyrazole compounds and methods of making and using same” (ABIDE THERAPEUTICS, INC., priority 2014, dated 2018).
